Assay results as given in patent publication US10450316B2, “Certain protein kinase inhibitor” (Chongqing Fochon Pharmaceutical Co., Ltd., priority 2015, dated 2019).
pIC50: −log10 of the molar value.

Each compound was assayed on BE(2)-C cell (assay: Cell proliferation assay (MTS) in BE(2)-C cells). Settings: Homo sapiens, inhibition of BE(2)-C cell proliferation, 48 h.
Assay type: cell-based
How it was run: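 Proliferation read-out was MTS absorbance at 490 nm, with 650 nm as reference, after a 2 h MTS incubation, giving IC50 values. Before reading, BE(2)-C cells plated at 3000 per well were exposed to nine compound concentrations from 10000 down to 1.5 nM for 48 h at 37 °C, 5% CO2.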
With C[C@@H]1CCc2nc3c(F)cc(-c4nc(Nc5ccc(CN6CC7(CCNCC7)C6)cn5)ncc4F)cc3n21 [Example 89, (R)-N-(5-((2,7-diazaspiro[3.5]nonan-2-yl)methyl)pyridin-2-yl)-5-fluoro-4-(5-fluoro-1-methyl-2,3-dihydro-1H-benzo[d]pyrrolo[1,2-a]imidazol-7-yl)pyrimidin-2-amine] the pIC50 was < 7.00. With C[C@@H]1CCc2nc3c(F)cc(-c4nc(Nc5ccc(CN6CC7(CCN(C)CC7)C6)cn5)ncc4F)cc3n21 [Example 90, (R)-5-fluoro-4-(5-fluoro-1-methyl-2,3-dihydro-1H-benzo[d]pyrrolo[1,2-a]imidazol-7-yl)-N-(5-((7-methyl-2,7-diazaspiro[3.5]nonan-2-yl)methyl)pyridin-2-yl)pyrimidin-2-amine] the pIC50 was 7.00 to 8.00. In the case of CCN1CCC2(CC1)CN(Cc1ccc(Nc3ncc(F)c(-c4cc(F)c5nc6n(c5c4)[C@H](C)CC6)n3)nc1)C2 [Example 91, (R)-N-(5-((7-ethyl-2,7-diazaspiro[3.5]nonan-2-yl)methyl)pyridin-2-yl)-5-fluoro-4-(5-fluoro-1-methyl-2,3-dihydro-1H-benzo[d]pyrrolo[1,2-a]imidazol-7-yl)pyrimidin-2-amine], the pIC50 was 7.00 to 8.00. For C[C@@H]1CCc2nc3c(F)cc(-c4nc(Nc5ccc(CN6CCC7(CCNCC7)CC6)cn5)ncc4F)cc3n21 [Example 92, (R)-N-(5-((3,9-diazaspiro[5.5]undecan-3-yl)methyl)pyridin-2-yl)-5-fluoro-4-(5-fluoro-1-methyl-2,3-dihydro-1H-benzo[d]pyrrolo[1,2-a]imidazol-7-yl)pyrimidin-2-amine], the pIC50 was < 7.00. For C[C@@H]1CCc2nc3c(F)cc(-c4nc(Nc5ccc(CN6CCC7(CCN(C)CC7)CC6)cn5)ncc4F)cc3n21 [Example 93, (R)-5-fluoro-4-(5-fluoro-1-methyl-2,3-dihydro-1H-benzo[d]pyrrolo[1,2-a]imidazol-7-yl)-N-(5-((9-methyl-3,9-diazaspiro[5.5]undecan-3-yl)methyl)pyridin-2-yl)pyrimidin-2-amine], the pIC50 was < 7.00. With CCN1CCC2(CC1)CCN(Cc1ccc(Nc3ncc(F)c(-c4cc(F)c5nc6n(c5c4)[C@H](C)CC6)n3)nc1)CC2 [Example 94, (R)-N-(5-((9-ethyl-3,9-diazaspiro[5.5]undecan-3-yl)methyl)pyridin-2-yl)-5-fluoro-4-(5-fluoro-1-methyl-2,3-dihydro-1H-benzo[d]pyrrolo[1,2-a]imidazol-7-yl)pyrimidin-2-amine] the pIC50 was < 7.00. In the case of C[C@@H]1CCc2nc3c(F)cc(-c4nc(Nc5ccc(CN6CC7(CNC7)C6)cn5)ncc4F)cc3n21 [Example 95, (R)-N-(5-((2,6-diazaspiro[3.3]heptan-2-yl)methyl)pyridin-2-yl)-5-fluoro-4-(5-fluoro-1-methyl-2,3-dihydro-1H-benzo[d]pyrrolo[1,2-a]imidazol-7-yl)pyrimidin-2-amine], the pIC50 was < 6.00. With C[C@@H]1CCc2nc3c(F)cc(-c4nc(Nc5ccc(CN6CC7(CN(C)C7)C6)cn5)ncc4F)cc3n21 [Example 96, (R)-5-fluoro-4-(5-fluoro-1-methyl-2,3-dihydro-1H-benzo[d]pyrrolo[1,2-a]imidazol-7-yl)-N-(5-((6-methyl-2,6-diazaspiro[3.3]heptan-2-yl)methyl)pyridin-2-yl)pyrimidin-2-amine] the pIC50 was < 7.00. Compound CCN1CC2(C1)CN(Cc1ccc(Nc3ncc(F)c(-c4cc(F)c5nc6n(c5c4)[C@H](C)CC6)n3)nc1)C2 [Example 97, (R)-N-(5-((6-ethyl-2,6-diazaspiro[3.3]heptan-2-yl)methyl)pyridin-2-yl)-5-fluoro-4-(5-fluoro-1-methyl-2,3-dihydro-1H-benzo[d]pyrrolo[1,2-a]imidazol-7-yl)pyrimidin-2-amine] has a pIC50 of 7.00 to 8.00. C[C@@H]1CCc2nc3c(F)cc(-c4nc(Nc5ccc(CN6CC7CNCC7C6)cn5)ncc4F)cc3n21 (stereo partly drawn) [Example 98, 5-fluoro-4-((R)-5-fluoro-1-methyl-2,3-dihydro-1H-benzo[d]pyrrolo[1,2-a]imidazol-7-yl)-N-(5-((hexahydropyrrolo[3,4-c]pyrrol-2(1H)-yl)methyl)pyridin-2-yl)pyrimidin-2-amine] was tested, and the pIC50 was < 7.00. Work on C[C@@H]1CCc2nc3c(F)cc(-c4nc(Nc5ccc(CN6CC7CN(C)CC7C6)cn5)ncc4F)cc3n21 (stereo partly drawn) [Example 99, 5-fluoro-4-((R)-5-fluoro-1-methyl-2,3-dihydro-1H-benzo[d]pyrrolo[1,2-a]imidazol-7-yl)-N-(5-((5-methylhexahydropyrrolo[3,4-c]pyrrol-2(1H)-yl)methyl)pyridin-2-yl)pyrimidin-2-amine] yielded a pIC50 of 7.00 to 8.00. CCN1CC2CN(Cc3ccc(Nc4ncc(F)c(-c5cc(F)c6nc7n(c6c5)[C@H](C)CC7)n4)nc3)CC2C1 (stereo partly drawn) [Example 100, N-(5-((5-ethylhexahydropyrrolo[3,4-c]pyrrol-2(1H)-yl)methyl)pyridin-2-yl)-5-fluoro-4-((R)-5-fluoro-1-methyl-2,3-dihydro-1H-benzo[d]pyrrolo[1,2-a]imidazol-7-yl)pyrimidin-2-amine] gave a pIC50 of 7.00 to 8.00. In the case of C[C@@H]1CCc2nc3c(F)cc(-c4nc(Nc5ccc(CN6C7CCC6CNC7)cn5)ncc4F)cc3n21 [Example 101, N-(5-((3,8-diazabicyclo[3.2.1]octan-8-yl)methyl)pyridin-2-yl)-5-fluoro-4-((R)-5-fluoro-1-methyl-2,3-dihydro-1H-benzo[d]pyrrolo[1,2-a]imidazol-7-yl)pyrimidin-2-amine], the pIC50 was < 7.00. C[C@@H]1CCc2nc3c(F)cc(-c4nc(Nc5ccc(CN6C7CCC6CN(C)C7)cn5)ncc4F)cc3n21 [Example 102, 5-fluoro-4-((R)-5-fluoro-1-methyl-2,3-dihydro-1H-benzo[d]pyrrolo[1,2-a]imidazol-7-yl)-N-(5-((3-methyl-3,8-diazabicyclo[3.2.1]octan-8-yl)methy1)pyridin-2-yl)pyrimidin-2-amine] was tested, and the pIC50 was 7.00 to 8.00. CCN1CC2CCC(C1)N2Cc1ccc(Nc2ncc(F)c(-c3cc(F)c4nc5n(c4c3)[C@H](C)CC5)n2)nc1 [Example 103, N-(5-((3-ethyl-3,8-diazabicyclo[3.2.1]octan-8-yl)methyl)pyridin-2-yl)-5-fluoro-4-((R)-5-fluoro-1-methyl-2,3-dihydro-1H-benzo[d]pyrrolo[1,2-a]imidazol-7-yl)pyrimidin-2-amine] gave a pIC50 of 7.00 to 8.00. For C[C@@H]1CCc2nc3c(F)cc(-c4nc(Nc5ccc(CN6CC7CCC(C6)N7)cn5)ncc4F)cc3n21 [Example 104, N-(5-((3,8-diazabicyclo[3.2.1]octan-3-yl)methyl)pyridin-2-yl)-5-fluoro-4-((R)-5-fluoro-1-methyl-2,3-dihydro-1H-benzo[d]pyrrolo[1,2-a]imidazol-7-yl)pyrimidin-2-amine], the pIC50 was 7.00 to 8.00. Work on C[C@@H]1CCc2nc3c(F)cc(-c4nc(Nc5ccc(CN6CC7CCC(C6)N7C)cn5)ncc4F)cc3n21 [Example 105, 5-fluoro-4-((R)-5-fluoro-1-methyl-2,3-dihydro-1H-benzo[d]pyrrolo[1,2-a]imidazol-7-yl)-N-(5-((8-methyl-3,8-diazabicyclo[3.2.1]octan-3-yl)methyl)pyridin-2-yl)pyrimidin-2-amine] yielded a pIC50 of 7.00 to 8.00. For CCN1C2CCC1CN(Cc1ccc(Nc3ncc(F)c(-c4cc(F)c5nc6n(c5c4)[C@H](C)CC6)n3)nc1)C2 [Example 106, N-(5-((8-ethyl-3,8-diazabicyclo[3.2.1]octan-3-yl)methyl)pyridin-2-yl)-5-fluoro-4-((R)-5-fluoro-1-methyl-2,3-dihydro-1H-benzo[d]pyrrolo[1,2-a]imidazol-7-yl)pyrimidin-2-amine], the pIC50 was 7.00 to 8.00. Compound CC1(C)CCc2nc3c(F)cc(-c4nc(Nc5ccc(CN6CCN7CCC[C@@H]7C6)cn5)ncc4F)cc3n21 [Example 110, (R)-5-fluoro-4-(5-fluoro-1,1-dimethyl-2,3-dihydro-1H-benzo[d]pyrrolo[1,2-a]imidazol-7-yl)-N-(5-((hexahydropyrrolo[1,2-a]pyrazin-2(1H)-yl)methyl)pyridin-2-yl)pyrimidin-2-amine] has a pIC50 of 7.00 to 8.00. CC1(C)CCc2nc3c(F)cc(-c4nc(Nc5ccc(CN6CC7(CCNCC7)C6)cn5)ncc4F)cc3n21 [Example 111, N-(5-((2,7-diazaspiro[3.5]nonan-2-yl)methyl)pyridin-2-yl)-5-fluoro-4-(5-fluoro-1,1-dimethyl-2,3-dihydro-1H-benzo[d]pyrrolo[1,2-a]imidazol-7-yl)pyrimidin-2-amine] was tested, and the pIC50 was < 7.00. In the case of CN1CCC2(CC1)CN(Cc1ccc(Nc3ncc(F)c(-c4cc(F)c5nc6n(c5c4)C(C)(C)CC6)n3)nc1)C2 [Example 112, 5-fluoro-4-(5-fluoro-1,1-dimethyl-2,3-dihydro-1H-benzo[d]pyrrolo[1,2-a]imidazol-7-yl)-N-(5-((7-methyl-2,7-diazaspiro[3.5]nonan-2-yl)methyl)pyridin-2-yl)pyrimidin-2-amine], the pIC50 was > 8.00. With CCN1CCC2(CC1)CN(Cc1ccc(Nc3ncc(F)c(-c4cc(F)c5nc6n(c5c4)C(C)(C)CC6)n3)nc1)C2 [Example 113, N-(5-((7-ethyl-2,7-diazaspiro[3.5]nonan-2-yl)methyl)pyridin-2-yl)-5-fluoro-4-(5-fluoro-1,1-dimethyl-2,3-dihydro-1H-benzo[d]pyrrolo[1,2-a]imidazol-7-yl)pyrimidin-2-amine] the pIC50 was > 8.00. With CC1(C)CCc2nc3c(F)cc(-c4nc(Nc5ccc(CN6CCC7(CC6)CNC7)cn5)ncc4F)cc3n21 [Example 114, N-(5-((2,7-diazaspiro[3.5]nonan-7-yl)methyl)pyridin-2-yl)-5-fluoro-4-(5-fluoro-1,1-dimethyl-2,3-dihydro-1H-benzo[d]pyrrolo[1,2-a]imidazol-7-yl)pyrimidin-2-amine] the pIC50 was < 7.00. In the case of CN1CC2(CCN(Cc3ccc(Nc4ncc(F)c(-c5cc(F)c6nc7n(c6c5)C(C)(C)CC7)n4)nc3)CC2)C1 [Example 115, 5-fluoro-4-(5-fluoro-1,1-dimethyl-2,3-dihydro-1H-benzo[d]pyrrolo[1,2-a]imidazol-7-yl)-N-(5-((2-methyl-2,7-diazaspiro[3.5]nonan-7-yl)methyl)pyridin-2-yl)pyrimidin-2-amine], the pIC50 was 7.00 to 8.00.
